Experimental findings from US20220241249A1, “PHARMACEUTICAL COMPOSITION AND KIT CONTAINING NOVEL PENAM DERIVATIVE OR SALT THEREOF AND ONE OR MORE COMPOUNDS SELECTED FROM beta-LACTAMASE INHIBITORY COMPOUND AND ANTIBACTERIAL COMPOUND OR SALTS THEREOF” (priority 2019, published 2022) are described below.

Read-outs that look alike come from different tables or passages of the source. Some results are limits rather than exact numbers.

Format in all cases: cell-based
Experiment [1] concerns AmpC-derepressed Pseudomonas aeruginosa mutant strain (S-3028). The experiment is described as follows: Antibacterial activity evaluation test, MIC by broth microdilution (CLSI). The conditions noted are these: Pseudomonas aeruginosa S-3028. An outline of the steps:
(§1)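 CLSI broth microdilution; cation-adjusted MH medium + compound; inoculum 0.5 McFarland ÷10 from overnight MH agar; 35° C., 16–20 h; visual read, no-growth endpoint.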
(Dilution methods test growth across graded concentrations, often in twofold steps.)

The subject of experiment [2] is CTX-M-15-containing Escherichia coli strain (TK-1747). Described as above. The conditions noted are these: Escherichia coli TK-1747. An outline of the steps: as §1
Experiment [3] has as its system GES-19 and GES-20-containing Pseudomonas aeruginosa strain (S-3759). The experiment is described as above. The conditions noted are these: Pseudomonas aeruginosa S-3759. Put shortly:
as §1

The test system of experiment [4] is IMP-1-containing Pseudomonas aeruginosa strain (S-2838). The experiment is described as above. The conditions noted are these: Pseudomonas aeruginosa S-2838. Put shortly: as §1
Experiment [5] deals with KPC-2-containing Klebsiella pneumoniae strain (Y-995). The experiment is described as above. The conditions noted are these: Klebsiella pneumoniae Y-995. An outline of the steps:
as §1

Experiment [6] concerns NDM-1-containing Klebsiella pneumoniae strain (Y-1007). Described as above. The conditions noted are these: Klebsiella pneumoniae Y-1007. Put shortly: as §1
Experiment [7] deals with OXA-48-containing Klebsiella pneumoniae strain (Y-1062). Described as above. The conditions noted are these: Klebsiella pneumoniae Y-1062. An outline of the steps:
as §1

For experiment [8], the system named is Pseudomonas aeruginosa strain ATCC27853. Described as above. Conditions: Pseudomonas aeruginosa, ATCC27853. Put shortly:
as §1

The test system of experiment [9] is VIM-2-containing Pseudomonas aeruginosa strain (S-3779). The experiment is described as above. Conditions: Pseudomonas aeruginosa S-3779. Put shortly: as §1
For experiment [10], the system named is Klebsiella pneumoniae Y-1020 strain producing KPC-3 and SHV-12 (strain B). As to the kind of experiment: MIC of test compound alone or with β-lactamase inhibitor at 4 μg/mL. The conditions noted are these: for MIC: Strain B. The method, then: (§2) By using a broth microdilution method, the combinational effect of a test compound and a β-lactamase inhibitor was evaluated.
(§3) The evaluation test for antibacterial activity was performed in the same manner as in Test Example 1.

Experiment [11] has as its system Klebsiella pneumoniae Y-1133 strain producing NDM-1, OXA-48, and CTX-M-15 (strain C). Described as above. The method, then: as §2, §3
Klebsiella pneumoniae Y-1133 strain producing NDM-1, OXA-48, and CTX-M-15 (hereinafter, called strain C),
(§4) An antibacterial activity evaluation test was performed in the same manner as in Test Example 6.
(§5) As the bacterial strain, the strains B, C, and D producing β-lactamase and a Klebsiella pneumoniae Y-1069 strain (hereinafter, called strain F) producing OXA-48 and CTX-M-15 were used.

The subject of experiment [12] is Escherichia coli TK-3113 strain producing IMP-8 (strain D). The experiment is described as above. The method, then:
as §2, §3
Escherichia coli TK-3113 strain producing IMP-8 (hereinafter, called strain D),
as §4, §5

For experiment [13], the system named is Klebsiella pneumoniae Y-1069 strain producing OXA-48 and CTX-M-15 (strain F). Described as above. The conditions noted are these: for MIC: Klebsiella pneumoniae, Strain F; for antibacterial activity in combination with a β-lactamase inhibitor versus without: for all the bacterial strains (strains B, C, D and F), summary of Tables 51 and 52. The method, then:
as §3, §4, §5

Experiment [14] deals with Escherichia coli TK-1747 strain producing CTX-M-15 (strain A). The description is as above. As to the method: as §2, §3
Escherichia coli TK-1747 strain producing CTX-M-15 (hereinafter, called strain A),

In experiment [15] the test system is Escherichia coli TK-1765 strain producing CMY-2 (strain E). The experiment is described as above. The method, then:
as §2, §3
Escherichia coli TK-1765 strain producing CMY-2 (hereinafter, called strain E)

[16] abbreviates: Klebsiella pneumoniae, test compound alone (β-lactamase inhibitor N/A), read-out: MIC.
Where [17] appears, read: Klebsiella pneumoniae, with AVI at 4 μg/mL, read-out: MIC.
Where [18] appears, read: Klebsiella pneumoniae, with CVA at 4 μg/mL, read-out: MIC.
[19] abbreviates: Klebsiella pneumoniae, with NAC at 4 μg/mL, read-out: MIC.
The mark [20] stands for this setting: Klebsiella pneumoniae, with ZID at 4 μg/mL, read-out: MIC.
[21] abbreviates: Klebsiella pneumoniae, with ZID at 4 μg/mL.
The mark [22] stands for this setting: Escherichia coli, test compound alone (β-lactamase inhibitor N/A).
The mark [23] stands for this setting: Escherichia coli, with NAC at 4 μg/mL.
Where [24] appears, read: Escherichia coli, with ZID at 4 μg/mL.
Where [25] appears, read: test compound alone (β-lactamase inhibitor N/A).

By MIC is commonly meant the lowest concentration found to suppress growth. With `C=C(O/N=C(\C(=O)NC1C(=O)N2C[C@@](C(=O)O)(N3CCN(NC(=O)C(=O)c4ccc(O)c(O)c4Cl)C3=O)S[C@H]12)c1csc(N)n1)C(=O)O` (stereo partly drawn) [Example 144, (3R,5R,6R)-6-((Z)-2-(2-aminothiazol-4-yl)-2-(((1-carboxyvinyl)-oxy)imino)acetamido)-3-(3-(2-(2-chloro-3,4-dihydroxyphenyl)-2-oxoacetamido)-2-oxo-imidazolidin-1-yl)-7-oxo-4-thia-1-azabicyclo-[3.2.0]heptane-3-car-boxylic acid], the Antibacterial activity (MIC) Pseudomonas aeruginosa S-3028 in [1] was less than 0.12 µg/mL. This molecule also came in with an Antibacterial activity (MIC) Escherichia coli TK-1747 in experiment [2] of less than 0.12 µg/mL. In [3], this molecule had an Antibacterial activity (MIC) Pseudomonas aeruginosa S-3759 of 1 µg/mL. Moreover, in experiment [4], the Antibacterial activity (MIC) Pseudomonas aeruginosa S-2838 is 32 µg/mL. Further, in experiment [5], the Antibacterial activity (MIC) Klebsiella pneumoniae Y-995 is less than 0.12 µg/mL. Moreover, the Antibacterial activity (MIC) Klebsiella pneumoniae Y-1007 in experiment [6] is less than 0.12 µg/mL. In [7], this molecule yielded an Antibacterial activity (MIC) Klebsiella pneumoniae Y-1062 of 0.5 µg/mL. Further, the Antibacterial activity (MIC) Pseudomonas aeruginosa ATCC 27853 in [8] came out at 0.25 µg/mL. In [9], the Antibacterial activity (MIC) Pseudomonas aeruginosa S-3779 is 0.25 µg/mL. The MIC in [10] (setting [16]) was 1 µg/mL; in [10] (setting [17]), 0.25 µg/mL; in [10] (setting [18]), 0.25 µg/mL; in experiment [10] (setting [19]), less than 0.015 µg/mL; in experiment [10] (setting [20]), 0.03 µg/mL; in experiment [11] (setting [21]), less than 0.015 µg/mL. In addition, the MIC in experiment [12] (setting [22]) was 0.5 µg/mL; in experiment [12] (Escherichia coli, with AVI at 4 μg/mL), 0.25 µg/mL; in [12] (Escherichia coli, with CVA at 4 μg/mL) it was 0.25 µg/mL; in experiment [12] (setting [23]), less than 0.015 µg/mL; in experiment [12] (Escherichia coli, with SBT at 4 μg/mL), 0.25 µg/mL; in experiment [12] (Escherichia coli, with TAZ at 4 μg/mL), 0.125 µg/mL. The MIC was less than 0.015 µg/mL in [12] (setting [24]); 4 µg/mL in experiment [13] (setting [25]); 0.25 µg/mL in experiment [13] (with AVI at 4 μg/mL); 2 µg/mL in [13] (with CVA at 4 μg/mL); 0.06 µg/mL in [13] (with NAC at 4 μg/mL); 2 µg/mL in experiment [13] (with SBT at 4 μg/mL). In addition, the MIC in [13] (with TAZ at 4 μg/mL) was found to be 2 µg/mL; in experiment [13] (with ZID at 4 μg/mL) it was 0.03 µg/mL. Moreover, the “antibacterial activity in combination with a β-lactamase inhibitor versus without” value in [13] is on record as “higher antibacterial activity”.
Regarding `Nc1nc(/C(=N/OC2(C(=O)O)CC2)C(=O)N[C@@H]2C(=O)N3C[C@@](C(=O)O)(N4CCN(NC(=O)C(=O)c5ccc(O)c(O)c5Cl)C4=O)S[C@H]23)cs1` [Compound E], the MIC in [14] (AVI added at 4 μg/mL), in experiment [14] (CVA added at 4 μg/mL), in experiment [14] (NAC added at 4 μg/mL), in experiment [14] (SBT added at 4 μg/mL), in experiment [14] (TAZ added at 4 μg/mL) and in experiment [14] (ZID added at 4 μg/mL) was less than 0.015 µg/mL each time. For the same molecule, the MIC in experiment [14] (setting [25]) was 0.06 µg/mL; in experiment [10] (AVI added at 4 μg/mL), 0.25 µg/mL; in experiment [10] (NAC added at 4 μg/mL) it was less than 0.015 µg/mL; in experiment [10] (VAB added at 4 μg/mL), 1 µg/mL; in experiment [10] (ZID added at 4 μg/mL), less than 0.015 µg/mL; in experiment [10] (setting [25]), 4 µg/mL. The MIC is 0.12 µg/mL in [11] (AVI added at 4 μg/mL); less than 0.015 µg/mL in experiment [11] (NAC added at 4 μg/mL); less than 0.015 µg/mL in [11] (ZID added at 4 μg/mL); 1 µg/mL in experiment [11] (setting [25]); 0.12 µg/mL in [12] (AVI added at 4 μg/mL); less than 0.015 µg/mL in experiment [12] (NAC added at 4 μg/mL). The MIC was less than 0.015 µg/mL in [12] (ZID added at 4 μg/mL); 0.25 µg/mL in experiment [12] (setting [25]); 1 µg/mL in [15] (setting [25]); 0.06 µg/mL in experiment [15] (with AVI at 4 μg/mL); 0.5 µg/mL in experiment [15] (with SBT at 4 μg/mL); 0.25 µg/mL in experiment [15] (with TAZ at 4 μg/mL). For the same molecule, the MIC in experiment [15] (with VAB at 4 μg/mL) was 0.12 µg/mL. Also, in [10] (for all the bacterial strains (strains A to E), summary of Tables 43 to 47), the “antibacterial activity in combination with a β-lactamase inhibitor versus without” value is recorded as “higher antibacterial activity”.
On to `CO/N=C(\C(=O)N[C@@H]1C(=O)N2C(C(=O)O)=C(COC(C)=O)CS[C@H]12)c1csc(N)n1` [CTX, cefotaxime sodium, reference compound], for which the MIC in [14] (Escherichia coli, test compound alone (β-lactamase inhibitor N/A), read-out: MIC) was more than 128 µg/mL.
Consider `CC(C)(O/N=C(\C(=O)NC1C(=O)N2C[C@@](C(=O)O)(N3CCN(NC(=O)C(=O)c4c(F)cc(O)c(O)c4Cl)C3=O)S[C@H]12)c1csc(N)n1)C(=O)O` (stereo partly shown) [Example 143], for which the Antibacterial activity (MIC) Pseudomonas aeruginosa S-3028 in experiment [1] was found to be 0.12 µg/mL. For the same molecule, the Antibacterial activity (MIC) Escherichia coli TK-1747 in [2] amounted to 0.12 µg/mL. Further, in experiment [3], the Antibacterial activity (MIC) Pseudomonas aeruginosa S-3759 came out at 1 µg/mL. The molecule further gave an Antibacterial activity (MIC) Pseudomonas aeruginosa S-2838 in [4] of 0.5 µg/mL. Also, in experiment [5], the Antibacterial activity (MIC) Klebsiella pneumoniae Y-995 was 0.12 µg/mL. The molecule further had an Antibacterial activity (MIC) Klebsiella pneumoniae Y-1007 in experiment [6] of less than 0.06 µg/mL. In experiment [7], the Antibacterial activity (MIC) Klebsiella pneumoniae Y-1062 came out at 2 µg/mL. In experiment [8], this molecule displayed an Antibacterial activity (MIC) Pseudomonas aeruginosa ATCC 27853 of 0.5 µg/mL. Also, in [9], the Antibacterial activity (MIC) Pseudomonas aeruginosa S-3779 stood at 0.25 µg/mL. Further, the MIC was 2 µg/mL in [10] (setting [16]); 0.5 µg/mL in experiment [10] (setting [17]); 1 µg/mL in experiment [10] (setting [18]); 0.03 µg/mL in experiment [10] (setting [19]); 1 µg/mL in [10] (Klebsiella pneumoniae, with VOB at 4 μg/mL, read-out: MIC); 0.03 µg/mL in experiment [10] (setting [20]). For the same molecule, the MIC is 0.06 µg/mL in [11] (Klebsiella pneumoniae, with NAC at 4 μg/mL); less than 0.015 µg/mL in experiment [11] (setting [21]); 0.5 µg/mL in experiment [12] (setting [22]); less than 0.015 µg/mL in experiment [12] (setting [23]); less than 0.015 µg/mL in experiment [12] (setting [24]); 8 µg/mL in [13] (setting [25]). For the same molecule, the minimal inhibitory concentration (MIC) in experiment [13] (with AVI at 4 μg/mL) is 0.25 µg/mL; in experiment [13] (with CVA at 4 μg/mL), 4 µg/mL; in experiment [13] (with NAC at 4 μg/mL), 0.12 µg/mL; in [13] (with SBT at 4 μg/mL), 4 µg/mL; in experiment [13] (with TAZ at 4 μg/mL), 4 µg/mL; in experiment [13] (with ZID at 4 μg/mL), less than 0.015 µg/mL. Moreover, the “antibacterial activity in combination with a β-lactamase inhibitor versus without” value in experiment [13] was “higher antibacterial activity”.
